Data: patent US20260001928A1 (CORTERIA PHARMACEUTICALS, priority 2022, published 2026)
*1 amine or outer side, *2 acyl side, *3 side chain or, on linkers, in order; H or OH if unused. Where a SMILES comes first, the peptide text is derived from it. Side-chain parts run from the residue outwards. [ ]: non-standard residue; d: D form. The star is where a group is joined. C20 diacid = O=C(O)CCCCCCCCCCCCCCCCCCC(=O)*; C18 diacid = O=C(O)CCCCCCCCCCCCCCCCC(=O)*; γGlu = O=C(O)[C@H](CCC(=O)[*:2])N[*:1]; NMeI = CC[C@H](C)[C@H](NC)C(=O)O; Api = NC1(C(=O)O)CCNCC1; AEEA = NCCOCCOCC(=O)O; Aib = CC(C)(N)C(=O)O

How the values were obtained:
[1] = target: T1, human CRF2a receptor (Homo sapiens, UniProt Q13324); experiment: Activity at human CRF2a receptor, cAMP functional assay in TeloHEAC cells; assay type: cell-based; conditions: TeloHEAC cells stably expressing human CRF2a receptor, relative to urocortin 2 (100 nM = 100%)
T1 construct: expressed in transfected cells; host or cells: TeloHEAC cells
T1 sequence (Q13324 1-411): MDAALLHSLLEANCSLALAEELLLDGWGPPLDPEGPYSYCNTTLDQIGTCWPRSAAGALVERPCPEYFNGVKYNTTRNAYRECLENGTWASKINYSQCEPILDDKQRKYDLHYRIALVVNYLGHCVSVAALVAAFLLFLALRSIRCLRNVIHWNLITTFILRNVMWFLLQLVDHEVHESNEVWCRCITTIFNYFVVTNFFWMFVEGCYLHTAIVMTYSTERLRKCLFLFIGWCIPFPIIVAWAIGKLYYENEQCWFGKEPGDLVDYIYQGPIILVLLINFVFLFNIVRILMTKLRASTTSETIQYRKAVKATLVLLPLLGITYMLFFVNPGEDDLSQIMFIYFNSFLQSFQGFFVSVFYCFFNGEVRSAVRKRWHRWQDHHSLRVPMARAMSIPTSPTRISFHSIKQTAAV
Summary of the method: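 cAMP accumulation was measured by HTRF 665/620 nm ratio after 30 min at 37° C compound exposure (16 twofold dilutions) of CRF2a-expressing TeloHEAC cells, 10000/well, in HEPES-buffered HBSS plus IBMX. Activity was normalised to urocortin 2 at 100 nM (100%), and EC50 was the concentration giving half-maximal activation.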

[2] = target: T2, CFR1R receptor (Homo sapiens, UniProt P34998); experiment: Activity at anti-target CFR1R receptor, cAMP assay in CRF1R-overexpression CHO-K1 cells; assay type: cell-based; conditions: 100% = Sauvagine at 100 nM
T2 construct: host or cells: CHO-K1 (clone 2)
T2 sequence (P34998 24-415): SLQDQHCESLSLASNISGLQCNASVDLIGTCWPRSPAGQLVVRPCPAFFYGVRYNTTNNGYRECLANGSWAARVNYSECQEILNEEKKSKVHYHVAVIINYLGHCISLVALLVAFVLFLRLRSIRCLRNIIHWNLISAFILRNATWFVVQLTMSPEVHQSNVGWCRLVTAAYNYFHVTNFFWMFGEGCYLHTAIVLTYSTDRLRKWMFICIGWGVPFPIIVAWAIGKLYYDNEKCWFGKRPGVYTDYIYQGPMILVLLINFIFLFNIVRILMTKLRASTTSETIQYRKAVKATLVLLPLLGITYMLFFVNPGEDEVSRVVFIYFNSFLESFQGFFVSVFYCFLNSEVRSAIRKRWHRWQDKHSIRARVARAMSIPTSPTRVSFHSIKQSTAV
Summary of the method: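 Run as for the TeloHAEC line, except the full-activation control well received Sauvagine (100 nM) and final density was 4000 cells/well. Cells from clone 2 came from frozen aliquots of near-confluent cultures.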

SMILES	EC50 [1]	Emax (% I) [2]	EC50 ([2]; cAMP)
CC[C@H](C)[C@H](NC(C)=O)C(=O)N[C@H](C(=O)N[C@@H](CC(C)C)C(=O)N[C@@H](CO)C(=O)N[C@@H](CC(C)C)C(=O)N[C@@H](CC(=O)O)C(=O)N[C@@H](C(=O)N1CCC[C@H]1C(=O)N[C@H](C(=O)N[C@@H](CCCCN)C(=O)N[C@@H](CC(C)C)C(=O)N[C@@H](CCCCNC(=O)COCCOCCNC(=O)CC[C@H](NC(=O)CC[C@H](NC(=O)CCCCCCCCCCCCCCCCC(=O)O)C(=O)O)C(=O)O)C(=O)N[C@@H](CCCCN)C(=O)N[C@H](C(=O)N[C@@H](CC(C)C)C(=O)N[C@@H](CC(C)C)C(=O)N[C@@H](CCC(=O)O)C(=O)N[C@@H](CCC(N)=O)C(=O)N[C@@H](CCC(=O)O)C(=O)N[C@@H](CCCCN)C(=O)N[C@@H](CCC(N)=O)C(=O)N[C@@H](CCCCN)C(=O)N[C@@H](CCCCN)C(=O)N[C@@H](CCC(N)=O)C(=O)N[C@@H](CCCNC(=N)N)C(=O)N[C@@H](CCC(=O)O)C(=O)N[C@@H](CCC(N)=O)C(=O)N[C@@H](C)C(=O)N[C@@H](CCC(=O)O)C(=O)N[C@H](C(=O)N[C@@H](CC(N)=O)C(=O)NC(C)(C)C(=O)N[C@@H](CCC(N)=O)C(=O)N[C@H](C(=O)N[C@@H](CC(C)C)C(=O)N[C@@H](C)C(=O)N[C@@H](CCC(N)=O)C(=O)N[C@H](C(N)=O)C(C)C)[C@@H](C)CC)[C@@H](C)O)[C@@H](C)CC)[C@@H](C)CC)C(C)C)C(C)C [compound 205] (Ac-IVLSLD[dV]PIKLK([AEEA-γGlu-γGlu-C18 diacid])KILLEQEKQKKQREQAETN[Aib]QILAQV-NH2)	1.43 nM	1 % I	> 250 nM
CC[C@H](C)[C@H](NC(C)=O)C(=O)N[C@H](C(=O)N[C@@H](CC(C)C)C(=O)N[C@@H](CO)C(=O)N[C@@H](CC(C)C)C(=O)N[C@@H](CC(=O)O)C(=O)N[C@@H](C(=O)N1CCC[C@H]1C(=O)N[C@H](C(=O)N[C@@H](CCCCN)C(=O)N[C@@H](CC(C)C)C(=O)N[C@@H](CCCCNC(=O)CC[C@H](NC(=O)CCCCCCCCCCCCCCCCCCC(=O)O)C(=O)O)C(=O)N[C@@H](CCCCN)C(=O)N[C@H](C(=O)N[C@@H](CC(C)C)C(=O)N[C@@H](CC(C)C)C(=O)N[C@@H](CCC(=O)O)C(=O)N[C@@H](CCC(N)=O)C(=O)N[C@@H](CCC(=O)O)C(=O)N[C@@H](CCCCN)C(=O)N[C@@H](CCC(N)=O)C(=O)N[C@@H](CCCCN)C(=O)N[C@@H](CCCCN)C(=O)N[C@@H](CCC(N)=O)C(=O)N[C@@H](CCCNC(=N)N)C(=O)N[C@@H](CCC(=O)O)C(=O)N[C@@H](CCC(N)=O)C(=O)N[C@@H](C)C(=O)N[C@@H](CCC(=O)O)C(=O)N[C@H](C(=O)N[C@@H](CC(N)=O)C(=O)NC1(C(=O)N[C@@H](CCC(N)=O)C(=O)N[C@H](C(=O)N[C@@H](CC(C)C)C(=O)N[C@@H](C)C(=O)N[C@@H](CCC(N)=O)C(=O)N[C@H](C(N)=O)C(C)C)[C@@H](C)CC)CCNCC1)[C@@H](C)O)[C@@H](C)CC)[C@@H](C)CC)C(C)C)C(C)C [compound 207] (Ac-IVLSLD[dV]PIKLK([γGlu-C20 diacid])KILLEQEKQKKQREQAETN[Api]QILAQV-NH2)	0.12 nM	65 % I	–
CC[C@H](C)[C@H](NC(C)=O)C(=O)N[C@H](C(=O)N[C@@H](CC(C)C)C(=O)N[C@@H](CO)C(=O)N[C@@H](CC(C)C)C(=O)N[C@@H](CC(=O)O)C(=O)N[C@@H](C(=O)N1CCC[C@H]1C(=O)N[C@H](C(=O)N[C@@H](CCCCN)C(=O)N[C@@H](CC(C)C)C(=O)N[C@@H](CCCCNC(=O)CC[C@H](NC(=O)CCCCCCCCCCCCCCCCCCC(=O)O)C(=O)O)C(=O)N[C@@H](CCCCN)C(=O)N[C@H](C(=O)N[C@@H](CC(C)C)C(=O)N[C@@H](CC(C)C)C(=O)N[C@@H](CCC(=O)O)C(=O)N[C@@H](CCC(N)=O)C(=O)N[C@@H](CCC(=O)O)C(=O)N[C@@H](C)C(=O)N[C@@H](CCC(N)=O)C(=O)N[C@@H](CCCCN)C(=O)N[C@@H](CCCCN)C(=O)N[C@@H](CCC(N)=O)C(=O)N[C@@H](CCCNC(=N)N)C(=O)N[C@@H](CCC(=O)O)C(=O)N[C@@H](CCC(N)=O)C(=O)N[C@@H](C)C(=O)N[C@@H](CCC(=O)O)C(=O)N[C@H](C(=O)N[C@@H](CC(N)=O)C(=O)NC(C)(C)C(=O)N[C@@H](CCC(N)=O)C(=O)N[C@H](C(=O)N[C@@H](CC(C)C)C(=O)N[C@@H](C)C(=O)N[C@@H](CCC(N)=O)C(=O)N[C@H](C(N)=O)C(C)C)[C@@H](C)CC)[C@@H](C)O)[C@@H](C)CC)[C@@H](C)CC)C(C)C)C(C)C [compound 211] (Ac-IVLSLD[dV]PIKLK([γGlu-C20 diacid])KILLEQEAQKKQREQAETN[Aib]QILAQV-NH2)	0.15 nM	73 % I	–

Further compounds by falling EC50 [1], results first:

EC50 [1]	Emax (% I) [2]	EC50 ([2]; cAMP)	SMILES
0.15 nM	63 % I	–	CC[C@H](C)[C@H](NC(C)=O)C(=O)N[C@H](C(=O)N[C@@H](CC(C)C)C(=O)N[C@@H](CO)C(=O)N[C@@H](CC(C)C)C(=O)N[C@@H](CC(=O)O)C(=O)N[C@@H](C(=O)N1CCC[C@H]1C(=O)N[C@H](C(=O)N[C@@H](CCCCN)C(=O)N[C@@H](CC(C)C)C(=O)N[C@@H](CCCCNC(=O)CC[C@H](NC(=O)CCCCCCCCCCCCCCCCCCC(=O)O)C(=O)O)C(=O)N[C@@H](CCCCN)C(=O)N[C@H](C(=O)N[C@@H](CC(C)C)C(=O)N[C@@H](CC(C)C)C(=O)N[C@@H](CCC(=O)O)C(=O)N[C@@H](CCC(N)=O)C(=O)N[C@@H](CCC(=O)O)C(=O)N[C@@H](CCCCN)C(=O)N[C@@H](CCC(N)=O)C(=O)N[C@@H](CCCCN)C(=O)NC(C)(C)C(=O)N[C@@H](CCC(N)=O)C(=O)N[C@@H](CCCNC(=N)N)C(=O)N[C@@H](CCC(=O)O)C(=O)N[C@@H](CCC(N)=O)C(=O)N[C@@H](C)C(=O)N[C@@H](CCC(=O)O)C(=O)N[C@H](C(=O)N[C@@H](CC(N)=O)C(=O)NC1(C(=O)N[C@@H](CCC(N)=O)C(=O)N[C@H](C(=O)N[C@@H](CC(C)C)C(=O)N[C@@H](C)C(=O)N[C@@H](CCC(N)=O)C(=O)N[C@H](C(N)=O)C(C)C)[C@@H](C)CC)CCNCC1)[C@@H](C)O)[C@@H](C)CC)[C@@H](C)CC)C(C)C)C(C)C [compound 208] (Ac-IVLSLD[dV]PIKLK([γGlu-C20 diacid])KILLEQEKQK[Aib]QREQAETN[Api]QILAQV-NH2)
0.05 nM	61 % I	–	CC[C@H](C)[C@H](NC)C(=O)N[C@H](C(=O)N[C@@H](CC(C)C)C(=O)N[C@@H](CO)C(=O)N[C@@H](CC(C)C)C(=O)N[C@@H](CC(=O)O)C(=O)N[C@@H](C(=O)N1CCC[C@H]1C(=O)N[C@H](C(=O)N[C@@H](CCCCN)C(=O)N[C@@H](CC(C)C)C(=O)N[C@@H](CCCCNC(=O)CC[C@H](NC(=O)CCCCCCCCCCCCCCCCCCC(=O)O)C(=O)O)C(=O)N[C@@H](CCCCN)C(=O)N[C@H](C(=O)N[C@@H](CC(C)C)C(=O)N[C@@H](CC(C)C)C(=O)N[C@@H](CCC(=O)O)C(=O)N[C@@H](CCC(N)=O)C(=O)N[C@@H](CCC(=O)O)C(=O)N[C@@H](C)C(=O)N[C@@H](CCC(N)=O)C(=O)N[C@@H](CCCCN)C(=O)N[C@@H](CCCCN)C(=O)N[C@@H](CCC(N)=O)C(=O)N[C@@H](CCCNC(=N)N)C(=O)N[C@@H](CCC(=O)O)C(=O)N[C@@H](CCC(N)=O)C(=O)N[C@@H](C)C(=O)N[C@@H](CCC(=O)O)C(=O)N[C@H](C(=O)N[C@@H](CC(N)=O)C(=O)NC(C)(C)C(=O)N[C@@H](CCC(N)=O)C(=O)N[C@H](C(=O)N[C@@H](CC(C)C)C(=O)N[C@@H](C)C(=O)N[C@@H](CCC(N)=O)C(=O)N[C@H](C(N)=O)C(C)C)[C@@H](C)CC)[C@@H](C)O)[C@@H](C)CC)[C@@H](C)CC)C(C)C)C(C)C [compound 216] (H-[NMeI]VLSLD[dV]PIKLK([γGlu-C20 diacid])KILLEQEAQKKQREQAETN[Aib]QILAQV-NH2)
